We go through 4 molecules from the NIST ThermoML archive (doi:10.1021/je3001377).

Structures are written as SMILES. Numbers after ± are expanded uncertainties.

The viscosity is the internal friction of a fluid under shear.

The conditions of the data set: 298.15 K; 101.33 kPa; Liquid; Cone and plate viscometry.
On to `CCCCn1cc[n+](CCCC)c1.CS(=O)(=O)[O-]` [1,3-dibutyl-1H-imidazolium methanesulfonate], for which the viscosity is recorded as 31.9 ± 2.4 mPa·s. With `CCCCn1cc[n+](C)c1.CS(=O)(=O)[O-]` [1-butyl-3-methylimidazolium methanesulfonate], the viscosity is recorded as 111 ± 14 mPa·s. Next, `CCn1cc[n+](C)c1.CS(=O)(=O)[O-]` [1-ethyl-3-methylimidazolium methanesulfonate]: 70.5 ± 2.7 mPa·s. As for `CS(=O)(=O)[O-].Cn1cc[n+](C)c1` [1,3-dimethyl-1H-imidazolium methanesulfonate], the viscosity is 32.9 ± 1.1 mPa·s.
